According to EP2465859A1, “8-Triazolylxanthine derivatives, processes for their production and their use as adenosine receptor antagonists” (Life & Brain GmbH, priority 2010, dated 2012):

How the values were obtained:
Format in all cases: cell-based
[1] = system: TNFα expression in ESdM cells; assay: ELISA assay: TNFα expression in ESdM cells stimulated with LPS and NECA or adenosine; settings: for IC50: 24 h, LPS-induced TNFα expression in the presence of NECA (100 nM NECA, 100 ng/ml LPS), read-out: EC50 (the source's name); for TNF alpha expression: 100 nM NECA, various antagonist concentrations; for functional character at human A2B adenosine receptors: conclusion from the ELISA functional experiment
Description: With the ELISA assay in Fig. 5 the effects of adenosine receptor antagonists were investigated. […] In the presence of the antagonists to be investigated, the influence on the TNFα expression was analyzed. The cytokine expression was determined in the ELISA.
The determined EC50 concentration amounted to 60 nM. ESdM cells were stimulated with 100 nM of NECA and 100 ng/ml of LPS, and the A2B antagonist 1a was added to the stimulated cells at various concentrations for 24 h. The supernatants of the cells were investigated for TNFα expression in an ELISA.
Example 53: ELISA Assay The ELISA assay was used to investigate the effects of adenosine antagonists. […] In the presence of the antagonists to be investigated, their influence on TNFα expression was analyzed. The cytokine expression was determined in the ELISA (Fig. 5).
To evaluate, whether ESdM cells can be stimulated by Adenosine 3 x 10^5 ESdM cells were seeded in 12 wells. The next day the cells have been stimulated with 1 µM Adenosine (Sigma-Aldrich) and different concentrations of LPS (10 ng/ml, 100 ng/ml and 500 ng/ml, Sigma-Aldrich). Supernatants were collected 24 hours later and were analysed for TNFα expression in an ELISA (EBioscience). As shown here (Fig. 6A), ESdM cells are sensitive for stimulation with 1 µM adenosine. Best results are achieved with a LPS concentration of 100 ng/ml, whereas 500 ng/ml of LPS provide […] detectable TNFα values.
To examine, if ESdM cells can also be stimulated with the synthetic adenosine receptor agonist NECA, ESdM cells were seeded in 12 wells in the same concentration as mentioned before. These cells were treated with different concentrations of NECA (1 µM and 100 nM) and 100 ng/ml LPS. The next day supernatants were collected and analysed for TNFα expression.
To analyse the effect of the A2B antagonist 1a, 3 x 10^5 ESdM cells were seeded in 12 wells. The next day cells were stimulated with 100 nM NECA, 100 ng/ml LPS and various concentrations (10 pM-10 nM) of A2B-receptor antagonist 1a Supernatants of the cells were investigated for TNFα expression in an ELISA.

human A2B receptor = target: T1, human A2B receptor (Homo sapiens, UniProt P29275); assay: cAMP assay in HEK cells recombinantly expressing the human A2B receptor
T1 construct: expressed in transfected cells; host or cells: HEK cells
T1 sequence (P29275 1-332): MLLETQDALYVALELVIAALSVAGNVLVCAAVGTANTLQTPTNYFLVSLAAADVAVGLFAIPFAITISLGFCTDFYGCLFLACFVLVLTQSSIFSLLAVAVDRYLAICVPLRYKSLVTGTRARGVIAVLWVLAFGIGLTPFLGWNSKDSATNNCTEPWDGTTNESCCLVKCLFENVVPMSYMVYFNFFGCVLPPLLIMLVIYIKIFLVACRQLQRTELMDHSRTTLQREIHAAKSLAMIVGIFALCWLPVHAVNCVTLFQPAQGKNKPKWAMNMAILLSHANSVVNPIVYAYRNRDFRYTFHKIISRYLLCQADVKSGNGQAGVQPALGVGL
Description: Example 52: cAMP assay The preparation of cAMP binding protein was carried out as previously described by Nordstedt and Fredholm (Anal. Biochem. 1990, 189, 231-234). 5'-(N-Ethylcarboxamido)adenosine (NECA) was obtained from Sigma. For cAMP experiments HEK cells, expressed the human recombinant A2B receptor were removed from a confluent 175 cm^2 flask, transferred into a falcon tube and spun down at 200 g, 4 °C for 5 min. After removal of the supernatant, the cell pellet was resuspended in Hank's buffered saline solution (HBSS, pH 7.4). 200 µl of the cell solution (∼ 200.000 cells per well) with 2 U/ml ADA was transferred into each well of a 24-well plate. After an incubation time of 1.5 h at 37 °C, 5 % CO2, 25 µL of the phosphodiesterase (PDE) inhibitor Ro-20-1724 (40 µM f.c.), dissolved in 100 % HBSS-puffer was added to each well and incubated for 10 min at 37 °C. […] After 10 min incubation time 12.5 µl of agonist (NECA) dissolved in the same buffer as well, was added and incubated for 15 min at 37 °C. NECA was incubated in concentrations of 10 µM and 1 µM alone as an control experiment. […] Well plates were put on ice and each well was subsequently homogenised by pipetting 6-7 times up and down. Competition binding experiments were performed in a final volume of 120 µl containing 50 µl of cell lysates, 30 µl of [^3H]cAMP (f.c. 3 nM) in lysis buffer (4 mM EDTA, 0.01 % trition X-100) and 40 µl of cAMP binding protein in the same buffer (50 µg protein per vial). Total binding was determined in the absence of cold cAMP and nonspecific binding was determined in the absence of cold cAMP and without binding protein. For a cAMP standard curve 50 µl of known cAMP concentration was put instead of 50 µl cell lysate. […] Then, filters were transferred to vials, incubated for 9 h with 2.5 mL of scintillation cocktail (Beckmann Coulter), and counted in a liquid scintillation counter (Tricarb 2700TR) with a counting efficiency of ∼ 54%.

[2] = target: T2, human adenosine A2B receptor (Homo sapiens, UniProt P29275); assay: cAMP assay in CHO cells recombinantly expressing the human adenosine A2B receptor (NECA dose-response curve shift); settings: for NECA-induced increase in cAMP formation / mode of antagonism (NECA curve shifted to the right): single antagonist concentration, ~5-fold of the Ki value
T2 construct: expressed in transfected cells; host or cells: CHO cells
T2 sequence (P29275 1-332): T1 sequence (P29275 1-332)
Description: Dose-response curves for the agonist NECA were determined in the absence and in the presence of a single concentration of the new antagonists 1d and 1f, using a ∼ 5-fold concentration of the Ki-values.

| SMILES | IC50 ([1]; ESdM cells) | TNF alpha expression ([1]; ESdM cells, 100 ng/ml LPS) | functional character at human A2B adenosine receptors [1] | also measured |
| --- | --- | --- | --- | --- |
| Cn1c(=O)c2[nH]c(-c3cn(Cc4cccc(C(F)(F)F)c4)nn3)nc2n(C)c1=O [1a, 1,3-Dimethyl-8-(1-(3-(trifluoromethyl)benzyl)-1H-1,2,3-triazol-4-yl)-1H-purine-2,6(3H,7H)-dione] | 2600 nM | dose-dependent decrease | confirmed as antagonists | EC50 ([1]; ESdM cells, 100 nM NECA and 100 ng/ml LPS, antagonist for 24 h, TNFα in supernatant (Fig. 7A), read-out: EC50 concentration): 60 nM; NECA-induced increase in cAMP formation (human A2B receptor; NECA 10 µM and 1 µM, antagonist 5 µM): inhibited; effect on cAMP levels of the compound itself (human A2B receptor; compound alone): no effect |
| Cn1c(=O)n(CC2CC2)c(=O)c2[nH]c(-c3cn(Cc4cccc(C(F)(F)F)c4)nn3)nc21 [1g, 1-(Cyclopropylmethyl)-3-methyl-8-(1-(3-(trifluoromethyl)benzyl)-1H-1,2,3-triazol-4-yl)-1H-purine-2,6(3H,7H)-dione] | 2320 nM | dose dependent decrease | confirmed as antagonists | – |
| CCNC(=O)[C@H]1O[C@@H](n2cnc3c(N)ncnc32)[C@H](O)[C@@H]1O [NECA, 5'-(N-Ethylcarboxamido)adenosine, reference compound] | – | – | – | stimulation of TNFα expression in ESdM cells following LPS stimulation ([1]; 1 µM and 100 nM NECA, 100 ng/ml LPS): sensitive; cAMP formation (human A2B receptor; agonist, 10 µM and 1 µM): concentration-dependent increase; cAMP formation ([2]; agonist dose-response curve): concentration-dependent increase |
| Nc1ncnc2c1ncn2[C@@H]1O[C@H](CO)[C@@H](O)[C@H]1O [adenosine] | – | – | – | stimulation of TNFα expression in ESdM cells following LPS stimulation ([1]; 1 µM adenosine, LPS 10, 100 and 500 ng/ml, 24 hours): sensitive |

More lines, main results first:

| IC50 ([1]; ESdM cells) | SMILES | TNF alpha expression ([1]; ESdM cells, 100 ng/ml LPS) | functional character at human A2B adenosine receptors [1] | also measured |
| --- | --- | --- | --- | --- |
| 1090 nM | CCn1c(=O)c2[nH]c(-c3cn(Cc4cccc(C(F)(F)F)c4)nn3)nc2n(CC)c1=O [1b, 1,3-Diethyl-8-(1-(3-(trifluoromethyl)benzyl)-1H-1,2,3-triazol-4-yl)-1H-purine-2,6(3H,7H)-dione] | dose dependent decrease | confirmed as antagonists | – |
| 1110 nM | CCCn1c(=O)[nH]c2nc(-c3cn(Cc4cccc(C(F)(F)F)c4)nn3)[nH]c2c1=O [1d, 1-Propyl-8-(1-(3-(trifluoromethyl)benzyl)-1H-1,2,3-triazol-4-yl)-1H-purine-2,6(3H,7H)-dione] | dose dependent decrease | confirmed as antagonists | NECA-induced increase in cAMP formation [2]: inhibited; mode of antagonism (NECA curve shifted to the right) [2]: competitive antagonism |
| 1360 nM | C#CCn1c(=O)c2[nH]c(-c3cn(Cc4cccc(C(F)(F)F)c4)nn3)nc2n(C)c1=O [1f, 3-Methyl-1-(prop-2-ynyl)-8-(1-(3-(trifluoromethyl)-benzyl)-1H-1,2,3-triazol-4-yl)-1H-purine-2,6(3H,7H)-dione] | dose dependent decrease | confirmed as antagonists | NECA-induced increase in cAMP formation [2]: inhibited; mode of antagonism (NECA curve shifted to the right) [2]: competitive antagonism |
